From US8841483B2, “Compositions useful as inhibitors of voltage-gated sodium channels” (Vertex Pharmaceuticals Incorporated, priority 2006, dated 2014)
pIC50: −log10 of the molar value. Read-outs that look alike come from different tables or passages of the source.

Experiments:
NaV1.8 [1] = target: T1, NaV1.8 (Homo sapiens, UniProt Q9Y5Y9); assay: Activity against NaV 1.8 channel (Table 3), optical membrane potential / electrophysiology assays; format: cell-based
Experimental: Compounds of the invention are useful as antagonists of voltage-gated sodium ion channels. Antagonist properties of test compounds were assessed as follows. Cells expressing the NaV of interest were placed into microtiter plates. After an incubation period, the cells were stained with fluorescent dyes sensitive to the transmembrane potential. The test compounds were added to the microtiter plate. The cells were stimulated with either a chemical or electrical means ti evoke a NaV dependent membrane potential change from unblocked channels, which was detected and measured with trans-membrane potential-sensitive dyes. Antagonists were detected as a decreased membrane potential response to the stimulus. The optical membrane potential assay utilized voltage-sensitive FRET sensors described by Gonzalez and Tsien (See, Gonzalez, J. E. and R. Y. Tsien (1995) “Voltage sensing by fluorescence resonance energy transfer in single cells” Biophys J 69(4): 1272-80, and Gonzalez, J. E. and R. Y. Tsien (1997) “Improved indicators of cell membrane potential that use fluorescence resonance energy transfer” Chem Biol 4(4): 269-77) in combination with instrumentation for measuring fluorescence changes such as the Voltage/Ion Probe Reader (VIPR®) (See, Gonzalez, J. E., K. Oades, et al. (1999) “Cell-based assays and instrumentation for screening ion-channel targets” Drug Discov Today 4(9): 431-439).
The following is an example of how NaV1.3 inhibition activity is measured using the optical membrane potential method #2. Other subtypes are performed in an analogous mode in a cell line expressing the NaV of interest.
HEK293 cells stably expressing NaV1.3 are plated into 96-well microtiter plates. After an appropriate incubation period, the cells are stained with the voltage sensitive dyes CC2-DMPE/DiSBAC2(3) as follows.
2X CC2-DMPE=20 μM CC2-DMPE: 10 mM CC2-DMPE is vortexed with an equivalent volume of 10% pluronic, followed by vortexing in required amount of HBSS containing 10 mM HEPES. Each cell plate will require 5 mL of 2X CC2-DMPE. 50 μL of 2X CC2-DMPE is to wells containing washed cells, resulting in a 10 μM final staining concentration. The cells are stained for 30 minutes in the dark at RT.
2X DISBAC2(3) with ABSC1=6 μM DISBAC2(3) and 1 mM ABSC1: The required amount of 10 mM DISBAC2(3) is added to a 50 ml conical tube and mixed with 1 μL 10% pluronic for each mL of solution to be made and vortexed together. Then HBSS/HEPES is added to make up 2X solution. Finally, the ABSC1 is added.
The 2X DiSBAC2(3) solution can be used to solvate compound plates. Note that compound plates are made at 2X drug concentration. Wash stained plate again, leaving residual volume of 50 μL. Add 50 uL/well of the 2X DiSBAC2(3) w/ABSC1. Stain for 30 minutes in the dark at RT.
The electrical stimulation instrument and methods of use are described in ION Channel Assay Methods PCT/US01/21652, herein incorporated by reference. The instrument comprises a microtiter plate handler, an optical system for exciting the coumarin dye while simultaneously recording the coumarin and oxonol emissions, a waveform generator, a current- or voltage-controlled amplifier, and a device for inserting electrodes in well. Under integrated computer control, this instrument passes user-programmed electrical stimulus protocols to cells within the wells of the microtiter plate.
Assay Protocol • 1. Insert or use electrodes into each well to be assayed. • 2. Use the current-controlled amplifier to deliver stimulation wave pulses for 3 s. Two seconds of pre-stimulus recording are performed to obtain the un-stimulated intensities. Five seconds of post-stimulation recording are performed to examine the relaxation to the resting state.
Data are analyzed and reported as normalized ratios of background-subtracted emission intensities measured in the 460 nm and 580 nm channels. Background intensities are then subtracted from each assay channel. […]

NaV1.3 = NaV1.3 (Homo sapiens, UniProt Q9NY46); conditions: read-out: TTX IC50; cited from earlier work
NaV1.6 = NaV1.6 (Homo sapiens, UniProt Q9UQD0); conditions: read-out: TTX IC50; cited from earlier work
NaV1.8 [2] = target: T1, NaV1.8; conditions: read-out: TTX IC50; cited from earlier work
NaV1.9 = NaV1.9 (Homo sapiens, UniProt Q9UI33); conditions: read-out: TTX IC50; cited from earlier work
Sequence of NaV1.9 (Q9UI33 whole entry, looked up): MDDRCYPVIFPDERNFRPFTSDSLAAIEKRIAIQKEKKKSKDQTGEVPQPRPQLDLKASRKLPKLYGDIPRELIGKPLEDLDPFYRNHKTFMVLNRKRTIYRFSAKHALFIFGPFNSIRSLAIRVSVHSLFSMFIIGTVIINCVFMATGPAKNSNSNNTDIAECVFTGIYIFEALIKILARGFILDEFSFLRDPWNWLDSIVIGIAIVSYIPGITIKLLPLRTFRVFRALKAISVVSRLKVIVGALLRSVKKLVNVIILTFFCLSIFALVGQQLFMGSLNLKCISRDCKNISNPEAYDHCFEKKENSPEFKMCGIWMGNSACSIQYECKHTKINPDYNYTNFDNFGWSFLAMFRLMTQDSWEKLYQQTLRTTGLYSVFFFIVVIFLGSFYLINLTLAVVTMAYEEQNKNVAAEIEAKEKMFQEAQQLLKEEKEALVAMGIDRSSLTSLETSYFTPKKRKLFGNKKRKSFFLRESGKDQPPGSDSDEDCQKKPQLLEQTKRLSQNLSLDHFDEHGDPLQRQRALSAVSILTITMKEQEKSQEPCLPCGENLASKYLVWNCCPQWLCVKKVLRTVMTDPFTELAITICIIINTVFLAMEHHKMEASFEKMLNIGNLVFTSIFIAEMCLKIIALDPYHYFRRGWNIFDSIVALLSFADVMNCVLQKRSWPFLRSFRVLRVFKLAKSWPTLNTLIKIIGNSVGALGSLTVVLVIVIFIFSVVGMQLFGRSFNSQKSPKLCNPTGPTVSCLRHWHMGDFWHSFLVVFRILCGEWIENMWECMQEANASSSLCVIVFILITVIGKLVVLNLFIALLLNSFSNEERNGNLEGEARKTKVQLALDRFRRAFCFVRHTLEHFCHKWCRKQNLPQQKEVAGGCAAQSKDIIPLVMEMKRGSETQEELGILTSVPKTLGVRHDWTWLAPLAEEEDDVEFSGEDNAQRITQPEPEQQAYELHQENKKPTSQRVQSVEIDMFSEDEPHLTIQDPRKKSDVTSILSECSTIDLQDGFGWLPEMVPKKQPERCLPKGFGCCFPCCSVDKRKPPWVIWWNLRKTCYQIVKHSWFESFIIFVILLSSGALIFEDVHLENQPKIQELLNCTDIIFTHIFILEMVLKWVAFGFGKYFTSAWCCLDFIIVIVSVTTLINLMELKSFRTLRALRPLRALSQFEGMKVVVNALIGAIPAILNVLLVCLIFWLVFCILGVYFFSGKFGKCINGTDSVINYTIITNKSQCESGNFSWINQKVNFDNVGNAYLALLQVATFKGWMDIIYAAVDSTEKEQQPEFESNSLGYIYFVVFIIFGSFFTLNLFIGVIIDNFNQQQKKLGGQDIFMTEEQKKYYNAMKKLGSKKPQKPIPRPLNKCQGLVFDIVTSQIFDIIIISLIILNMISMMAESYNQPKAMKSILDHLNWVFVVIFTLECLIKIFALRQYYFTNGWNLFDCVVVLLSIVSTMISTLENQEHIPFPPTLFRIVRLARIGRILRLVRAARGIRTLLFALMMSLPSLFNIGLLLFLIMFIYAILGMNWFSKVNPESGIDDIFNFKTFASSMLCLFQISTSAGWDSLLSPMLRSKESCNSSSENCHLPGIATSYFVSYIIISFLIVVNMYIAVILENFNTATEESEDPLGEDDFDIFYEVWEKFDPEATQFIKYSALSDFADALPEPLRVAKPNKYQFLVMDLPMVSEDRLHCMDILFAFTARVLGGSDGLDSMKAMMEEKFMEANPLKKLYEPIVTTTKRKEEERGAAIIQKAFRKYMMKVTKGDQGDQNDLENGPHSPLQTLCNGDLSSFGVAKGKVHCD

NaV1.1 = NaV1.1 (Homo sapiens, UniProt P35498); conditions: read-out: TTX IC50; cited from earlier work
NaV1.2 = NaV1.2 (Homo sapiens, UniProt Q99250); conditions: read-out: TTX IC50; cited from earlier work

T1 sequence (Q9Y5Y9 whole entry, looked up): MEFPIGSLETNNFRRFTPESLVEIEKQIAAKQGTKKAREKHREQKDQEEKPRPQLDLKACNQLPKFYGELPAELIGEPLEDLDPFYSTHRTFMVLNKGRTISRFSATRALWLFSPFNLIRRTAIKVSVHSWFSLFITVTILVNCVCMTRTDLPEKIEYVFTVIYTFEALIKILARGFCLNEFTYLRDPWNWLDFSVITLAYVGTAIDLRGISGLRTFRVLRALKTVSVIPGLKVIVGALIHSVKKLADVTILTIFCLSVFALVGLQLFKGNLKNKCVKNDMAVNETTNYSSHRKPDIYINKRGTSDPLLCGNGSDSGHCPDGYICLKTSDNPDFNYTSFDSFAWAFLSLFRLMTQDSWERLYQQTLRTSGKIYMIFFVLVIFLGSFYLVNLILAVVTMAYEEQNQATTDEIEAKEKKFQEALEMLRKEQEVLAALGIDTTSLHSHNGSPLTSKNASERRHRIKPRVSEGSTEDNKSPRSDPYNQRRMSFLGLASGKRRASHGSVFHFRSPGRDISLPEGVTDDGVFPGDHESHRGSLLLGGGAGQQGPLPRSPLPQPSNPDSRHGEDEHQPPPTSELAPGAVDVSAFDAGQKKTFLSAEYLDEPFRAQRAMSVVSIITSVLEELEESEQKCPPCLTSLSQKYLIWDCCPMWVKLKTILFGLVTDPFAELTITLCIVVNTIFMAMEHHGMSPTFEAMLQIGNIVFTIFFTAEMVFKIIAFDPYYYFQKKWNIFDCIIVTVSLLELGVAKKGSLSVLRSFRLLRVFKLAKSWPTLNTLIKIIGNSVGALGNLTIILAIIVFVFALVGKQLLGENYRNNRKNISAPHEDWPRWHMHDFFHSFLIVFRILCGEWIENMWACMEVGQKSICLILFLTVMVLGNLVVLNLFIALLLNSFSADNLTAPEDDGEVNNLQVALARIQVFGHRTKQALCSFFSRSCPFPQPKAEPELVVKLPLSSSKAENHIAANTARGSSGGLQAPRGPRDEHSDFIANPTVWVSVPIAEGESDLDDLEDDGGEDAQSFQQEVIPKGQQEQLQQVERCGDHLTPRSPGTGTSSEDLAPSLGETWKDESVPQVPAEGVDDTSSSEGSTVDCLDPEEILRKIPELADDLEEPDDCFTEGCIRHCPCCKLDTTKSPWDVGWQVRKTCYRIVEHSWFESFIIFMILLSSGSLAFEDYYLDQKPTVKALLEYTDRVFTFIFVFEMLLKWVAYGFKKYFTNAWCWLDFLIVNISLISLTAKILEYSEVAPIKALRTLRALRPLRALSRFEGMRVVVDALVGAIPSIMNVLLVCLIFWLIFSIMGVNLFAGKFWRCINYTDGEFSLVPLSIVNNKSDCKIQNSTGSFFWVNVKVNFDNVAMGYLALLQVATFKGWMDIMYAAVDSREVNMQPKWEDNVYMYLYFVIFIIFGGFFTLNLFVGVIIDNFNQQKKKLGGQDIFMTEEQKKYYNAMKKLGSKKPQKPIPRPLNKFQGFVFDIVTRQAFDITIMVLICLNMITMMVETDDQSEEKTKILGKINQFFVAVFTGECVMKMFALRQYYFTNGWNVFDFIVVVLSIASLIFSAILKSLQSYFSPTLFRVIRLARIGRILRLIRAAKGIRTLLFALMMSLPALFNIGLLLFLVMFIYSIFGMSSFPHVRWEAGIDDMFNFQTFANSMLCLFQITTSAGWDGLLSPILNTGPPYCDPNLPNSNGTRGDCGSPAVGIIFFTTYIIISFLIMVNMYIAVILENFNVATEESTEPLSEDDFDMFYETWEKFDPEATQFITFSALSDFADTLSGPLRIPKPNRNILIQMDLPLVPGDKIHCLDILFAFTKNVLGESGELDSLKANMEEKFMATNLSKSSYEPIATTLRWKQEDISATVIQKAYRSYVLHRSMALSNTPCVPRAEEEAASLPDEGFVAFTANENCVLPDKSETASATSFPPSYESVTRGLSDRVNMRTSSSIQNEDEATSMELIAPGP

Row | SMILES | pIC50 (NaV1.8 [1]) | other results
1 | CC(=O)c1ccc(Oc2cc(C(C)(C)C)ccc2C(=O)Nc2cccc(S(N)(=O)=O)c2)cc1 [Compound 128] | > 5.70 | 
2 | CC(C)(C)c1ccc(C(=O)Nc2cccc(S(N)(=O)=O)c2)c(Oc2cc(C(F)(F)F)ncn2)c1 [Compound 129] | < 5.00 | 
3 | CC(C)(C)c1ccc(C(=O)Nc2cccc(S(N)(=O)=O)c2)c(Oc2ccc(C#N)cc2)c1 [Compound 130] | > 5.70 | 
4 | CCCOc1ccccc1C(=O)Nc1cccc(S(N)(=O)=O)c1 [Compound 131] | < 5.00 | 
5 | CC(C)(C)c1ccc(C(=O)Nc2cccc(S(N)(=O)=O)c2)c(Oc2cccc(F)c2)c1 [Compound 132] | > 5.70 | 
6 | COc1ccc(C(=O)Nc2cccc(S(N)(=O)=O)c2)c(C(F)(F)F)c1 [Compound 133] | < 5.00 | 
7 | CC(C)(C)c1ccc(C(=O)Nc2cccc(S(N)(=O)=O)c2)c(Oc2cccc(C(F)(F)F)c2)c1 [Compound 134] | > 5.70 | 
8 | CC(=O)c1cccc(Oc2cc(C(C)(C)C)ccc2C(=O)Nc2cccc(S(N)(=O)=O)c2)c1 [Compound 135] | > 5.70 | 
9 | CC(C)(C)c1ccc(C(=O)Nc2cccc(S(N)(=O)=O)c2)c(Oc2cccc(N3CCOCC3)c2)c1 [Compound 136] | < 5.00 | 
10 | CCc1ccccc1C(=O)Nc1cccc(S(N)(=O)=O)c1 [Compound 137] | < 5.00 | 
11 | Cc1ncccc1Oc1cc(C(F)(F)F)ccc1C(=O)Nc1cccc(S(N)(=O)=O)c1 [Compound 138, 2-(2-methylpyridin-3-yloxy)-N-(3-sulfamoylphenyl)-4-(trifluoromethyl)benzamide] | > 5.70 | 
12 | COc1cccc(Oc2cc(C(C)(C)C)ccc2C(=O)Nc2cccc(S(N)(=O)=O)c2)c1 [Compound 139] | 5.00 to 5.70 | 
13 | COc1cc(Cl)ccc1C(=O)Nc1cccc(S(N)(=O)=O)c1 [Compound 140] | < 5.00 | 
14 | COc1ccc(C(=O)Nc2cccc(S(N)(=O)=O)c2)c(C)c1 [Compound 141] | < 5.00 | 
15 | Cc1ccc(C(=O)Nc2cccc(S(N)(=O)=O)c2)c(Br)c1 [Compound 142] | < 5.00 | 
16 | CC(C)(C)c1ccc(C(=O)Nc2cccc(S(N)(=O)=O)c2)c(Oc2ccc(C#N)cc2Cl)c1 [Compound 143] | > 5.70 | 
17 | Cc1ccc(Oc2cc(C(C)(C)C)ccc2C(=O)Nc2cccc(S(N)(=O)=O)c2)cn1 [Compound 144] | > 5.70 | 
18 | NC1=N[C@H](O)[C@H]2[C@H]3O[C@]4(O)O[C@@H]([C@@H](O)[C@@]2(N1)[C@@H]4O)[C@]3(O)CO [TTX, tetrodotoxin] |  | pIC50 (NaV1.3): 7.82; pIC50 (NaV1.6): 8.22; pIC50 (NaV1.8 [2]): < 4.30; pIC50 (NaV1.9): 6.00; pIC50 (NaV1.1): 8.00; pIC50 (NaV1.2): 8.00
